Where a name gives a salt, the structure may show the parent alone. Peptide text beside a SMILES is read from it.
Experiments:
[1] = test system: germ cells in seminiferous tubules; assay: DOX-induced germ cell apoptosis in mouse seminiferous tubule cultures ex vivo (TUNEL); type: cell-based; details: 12 hours
Procedure: A total of 15 young adult (12-13 week-old) mice were used for these ex vivo studies. The animals were sacrificed with a 5% pentobarbital (200 mg/Kg) IP injection. Testes were dissected and after removing the tunica albuginea, seminiferous tubules isolated from testes were cut into small segments under a dissecting microscope and light and dark segments were separated by dissection. Ten to twelve segments were placed (2 mm in length) in each well on a six well plate with 2 ml serum free Ham F-10 culture medium (GIBCO, Life Technologies, Thermo Fisher Scientific Corp., Carlsbad, Calif.) with the following treatments: control (Con, n=10), heat (43° C., 15 minutes, used as a positive control, n=10); HN 10 μg/mL (n=9); DOX 10 mcM (Dox10, n=10); and DOX 10 mcM+Humanin 10 μg/mL (Dox10+HN, n=10). For these experiments, n represents the total number of times the treatment was repeated using different animals. After 12 hours of incubation at 34° C. the seminiferous tubules from each treatment group were used to make “squashed” seminiferous tubule samples on a slide for TUNEL (TdT-mediated dUTP nick-end labeling) assay to detect germ cell apoptosis (Erkkila, et al., 1997; Toppari & Parvinen, 1985). To quantify the rate of germ cell apoptosis under a light microscope at 400× magnification, a square grid fitted within the eyepiece provided a reference area of 62,500 μm^2. The TUNEL positive apoptotic germ cells within the frame of grid were counted in 4 segments of seminiferous tubules in each group. The incidence of germ cell apoptosis was expressed as the number of apoptotic germ cells per mm^2.
A total of 15 mice were used for ex vivo studies. The animals were sacrificed and seminiferous tubules isolated from testes were cut into small segments under a dissecting microscope to identify light (early stages I-IV and late stages XI-XII) of the seminiferous epithelium) and dark (middle stages VII-VIII) segments. […] To quantify the rate of germ cell apoptosis, the squashed segments of seminiferous tubules were examined with an American Optical Microscope (Scientific Instruments, Buffalo, N.Y.) with a 40× objective and a 10× eyepiece lens. […] The TUNEL positive apoptotic germ cells within the frame of grid were counted in 4 segments of seminiferous tubules in each group. The incidence of germ cell apoptosis was expressed as the number of apoptotic germ cells per mm^2.

male germ cells [2] = type: in vivo; details: single IP; HN, HN-S7A, HN-C8P, HN-L12A 40 mg/Kg BW; HNG, HNG-F6A 5 mg/Kg BW; 24 hours
Procedure: For the HN analog experiments, male mice were divided into seven groups (n=4-5 per group) and received one of the following treatments and sacrificed after 24 hours: 1) vehicle (control); 2) a single intra-peritoneal (IP) injection of HN peptide [HN, 40 mg/Kg body weight (BW)]; 3) a single IP injection of CP (CP, 200 mg/Kg BW); 4) IP injection of CP and HN (CP+HN); 5) a single IP injection of each HN analog (HNG 5 mg/Kg BW, HNG-F6A 5 mg/Kg BW, HN-S7A 40 mg/Kg BW, HN-C8P 40 mg/Kg BW, or HN-L12A 40 mg/Kg BW); 6) IP injection of CP and each HN analog (CP+HNG, HNG-F6A, HN-S7A, HN-C8P, or HN-L12A); and 7) IP injection of CP+HN+HN analog (HN-S7A, HN-C8P, or HN-L12A; to assess whether the analogs has enhancing or inhibitory effect on HN).
To facilitate testicular fixation by using a whole-body perfusion technique, all animals were injected with heparin (130 IU/100 g BW, IP) 15 min before a lethal injection of sodium pentobarbital (200 mg/kg BW, IP) (Lue Y H, et al., 1999). One testis was removed and weighed after perfusion with saline. Portions of testicular parenchyma were snap frozen in liquid nitrogen, and stored at −80 C for Western blotting. The other testis was fixed by vascular perfusion with Bouin's solution, and processed with routine paraffin embedding for in situ detection of apoptosis.
Detection of apoptotic cells was performed in Bouin's'-fixed, paraffin-embedded testicular sections by the terminal deoxynucleotidyl transferase (TdT)-mediated deoxy-UTP nick end labeling (TUNEL) technique (Sinha Hikim A P, et al., 1997) using an ApopTag-peroxidase kit (Chemicon International, Inc., Temecula, Calif.). Enumeration of the Sertoli cell nuclei with distinct nucleoli and apoptotic germ cell population was quantified at stages I-IV (early stages), stages VII-VIII (middle stages) and stages XI-XII (late stages) of the seminiferous epithelial cycle using an Olympus BH-2 microscope (New Hyde Park, N.Y.). Stages were identified according to the criteria proposed by Russell et al for paraffin sections (Russell L, 1977). The rate of germ cell apoptosis (apoptotic index, AI) was expressed as the number of apoptotic germ cells per Sertoli cells (Sinha Hikim A P, et al., 1997).

male germ cells [3] = details: testicular cross sections, 24 hours; HN 40 mg/Kg or CP 200 mg/Kg single IP
Procedure: Young adult mice (12-13 weeks) were randomly divided into 4 groups with 4 or 5 mice per group and received an IP injection: control (Con) (saline), HN (40 mg/Kg BW), CP (200 mg/Kg BW), and the combination of CP+HN. These experiments were repeated four times. In the CP+HN group, mice received an injection of HN followed by an injection of CP about 15 minutes later. Twenty-four hours after injections animals were sacrificed using 5% pentobarbital (200 mg/kg BW) IP injection. Blood was collected and one testis was removed, weighed and frozen in liquid nitrogen. The mouse was next perfused with saline and then subsequently perfuse-fixed with Bouin's solution as previously described and apoptosis was assessed by TUNEL assay (Lue, et al., 2009).
For detection of apoptosis in testicular sections, the paraffin embedded testis tissue was cut into 5 micron sections and stained with the TdT-mediated dUTP nick-end labeling assay (TUNEL Apoptosis Detection Kit, Millipore, Billerica, Mass.) to detect apoptosis of germ cells in the testis (Lue, et al., 2009). Testicular sections assayed by TUNEL were examined under a light microscope and the apoptotic germ cells were blindly and manually counted. The seminiferous tubules in the testis section under the microscope were grouped as stages IX-IV (early-late stages of spermatogenesis) and V-VIII (middle stages of spermatogenesis). Germ cell apoptosis was quantified as the number of seminiferous tubules containing apoptotic spermatogonia, spermatoctyes, round spermatids and spermatozoa per 100 seminiferous tubules (Drumond, et al., 2011).

testosterone = details: with or without EDS pre-treatment

COc1cccc2c1C(=O)c1c(O)c3c(c(O)c1C2=O)C[C@@](O)(C(=O)CO)C[C@@H]3O[C@H]1C[C@H](N)[C@H](O)[C@H](C)O1 [DOX, doxorubicin hydrochloride]
germ cell apoptosis compared with control ([1]; HN 10 μg/mL alone or DOX 10 μM (high dose) alone, hydrochloride): significantly higher number of apoptotic germ cells
germ cell apoptosis compared with control ([1]; HN 10 μg/mL alone or DOX 10 μM (high dose) alone, listed as doxorubicin, hydrochloride): significantly increased apoptosis
germ cell apoptosis compared with control ([1]; doxorubicin 1 μM (low dose)): increased apoptosis but did not reach statistical difference

CC[C@H](C)[C@H](NC(=O)[C@H](CCC(=O)O)NC(=O)CNC(=O)[C@@H](NC(=O)[C@H](CC(C)C)NC(=O)[C@H](CC(C)C)NC(=O)[C@H](CC(C)C)NC(=O)[C@H](CC(C)C)NC(=O)[C@H](CS)NC(=O)[C@H](CO)NC(=O)[C@H](C)NC(=O)CNC(=O)[C@H](CCCNC(=N)N)NC(=O)[C@@H]1CCCN1C(=O)[C@H](C)NC(=O)[C@@H](N)CCSC)[C@@H](C)O)C(=O)N[C@@H](CC(=O)O)C(=O)N[C@@H](CC(C)C)C(=O)N1CCC[C@H]1C(=O)N[C@H](C(=O)N[C@@H](CCCCN)C(=O)N[C@@H](CCCNC(=N)N)C(=O)N[C@@H](CCCNC(=N)N)C(=O)N[C@@H](C)C(=O)O)C(C)C [HNG-F6A] (H-MAPRGASCLLLLTGEIDLPVKRRA-OH; N-terminus and C-terminus assumed)
spontaneous germ cell apoptosis, peptide alone (male germ cells [2]): did not change

CC[C@H](C)[C@H](NC(=O)[C@H](CCC(=O)O)NC(=O)[C@H](CO)NC(=O)[C@@H](NC(=O)[C@H](CC(C)C)NC(=O)[C@H](CC(C)C)NC(=O)[C@H](CC(C)C)NC(=O)[C@H](CC(C)C)NC(=O)[C@H](CS)NC(=O)[C@H](CO)NC(=O)[C@H](Cc1ccccc1)NC(=O)CNC(=O)[C@H](CCCNC(=N)N)NC(=O)[C@@H]1CCCN1C(=O)[C@H](C)NC(=O)[C@@H](N)CCSC)[C@@H](C)O)C(=O)N[C@@H](CC(=O)O)C(=O)N[C@@H](CC(C)C)C(=O)N1CCC[C@H]1C(=O)N[C@H](C(=O)N[C@@H](CCCCN)C(=O)N[C@@H](CCCNC(=N)N)C(=O)N[C@@H](CCCNC(=N)N)C(=O)N[C@@H](C)C(=O)O)C(C)C [HN]
germ cell apoptosis compared with control ([1]; HN 10 μg/mL alone or DOX 10 μM (high dose) alone): no significant effect
germ cell apoptosis compared to control (male germ cells [3]): no significant effect
spontaneous germ cell apoptosis, peptide alone (male germ cells [2]): did not change
intratesticular testosterone levels (testosterone): no significant effects
serum testosterone levels (testosterone): no significant effects

CC[C@H](C)[C@H](NC(=O)[C@H](CCC(=O)O)NC(=O)[C@H](CO)NC(=O)[C@@H](NC(=O)[C@H](C)NC(=O)[C@H](CC(C)C)NC(=O)[C@H](CC(C)C)NC(=O)[C@H](CC(C)C)NC(=O)[C@H](CS)NC(=O)[C@H](CO)NC(=O)[C@H](Cc1ccccc1)NC(=O)CNC(=O)[C@H](CCCNC(=N)N)NC(=O)[C@@H]1CCCN1C(=O)[C@H](C)NC(=O)[C@@H](N)CCSC)[C@@H](C)O)C(=O)N[C@@H](CC(=O)O)C(=O)N[C@@H](CC(C)C)C(=O)N1CCC[C@H]1C(=O)N[C@H](C(=O)N[C@@H](CCCCN)C(=O)N[C@@H](CCCNC(=N)N)C(=O)N[C@@H](CCCNC(=N)N)C(=O)N[C@@H](C)C(=O)O)C(C)C [HN-L12A] (H-MAPRGFSCLLLATSEIDLPVKRRA-OH; N-terminus and C-terminus assumed)
spontaneous germ cell apoptosis, peptide alone (male germ cells [2]): did not change

CC[C@H](C)[C@H](NC(=O)[C@H](CCC(=O)O)NC(=O)[C@H](CO)NC(=O)[C@@H](NC(=O)[C@H](CC(C)C)NC(=O)[C@H](CC(C)C)NC(=O)[C@H](CC(C)C)NC(=O)[C@H](CC(C)C)NC(=O)[C@H](CS)NC(=O)[C@H](C)NC(=O)[C@H](Cc1ccccc1)NC(=O)CNC(=O)[C@H](CCCNC(=N)N)NC(=O)[C@@H]1CCCN1C(=O)[C@H](C)NC(=O)[C@@H](N)CCSC)[C@@H](C)O)C(=O)N[C@@H](CC(=O)O)C(=O)N[C@@H](CC(C)C)C(=O)N1CCC[C@H]1C(=O)N[C@H](C(=O)N[C@@H](CCCCN)C(=O)N[C@@H](CCCNC(=N)N)C(=O)N[C@@H](CCCNC(=N)N)C(=O)N[C@@H](C)C(=O)O)C(C)C [HN-S7A] (H-MAPRGFACLLLLTSEIDLPVKRRA-OH; N-terminus and C-terminus assumed)
spontaneous germ cell apoptosis, peptide alone (male germ cells [2]): did not change

CC[C@H](C)[C@H](NC(=O)[C@H](CCC(=O)O)NC(=O)[C@H](CO)NC(=O)[C@@H](NC(=O)[C@H](CC(C)C)NC(=O)[C@H](CC(C)C)NC(=O)[C@H](CC(C)C)NC(=O)[C@H](CC(C)C)NC(=O)[C@@H]1CCCN1C(=O)[C@H](CO)NC(=O)[C@H](Cc1ccccc1)NC(=O)CNC(=O)[C@H](CCCNC(=N)N)NC(=O)[C@@H]1CCCN1C(=O)[C@H](C)NC(=O)[C@@H](N)CCSC)[C@@H](C)O)C(=O)N[C@@H](CC(=O)O)C(=O)N[C@@H](CC(C)C)C(=O)N1CCC[C@H]1C(=O)N[C@H](C(=O)N[C@@H](CCCCN)C(=O)N[C@@H](CCCNC(=N)N)C(=O)N[C@@H](CCCNC(=N)N)C(=O)N[C@@H](C)C(=O)O)C(C)C [HN-C8P] (H-MAPRGFSPLLLLTSEIDLPVKRRA-OH; N-terminus and C-terminus assumed)
spontaneous germ cell apoptosis, peptide alone (male germ cells [2]): did not change

Reference: patent US9937227B2, “Humanin, analogs and cancer treatment methods and uses thereof” (LOS ANGELES BIOMEDICAL RESEARCH INSTITUTE AT HARBOR-UCLA …, priority 2014, dated 2018)
